Test results: ChEMBL document CHEMBL4229381, “New cytokinin derivatives possess UVA and UVB photoprotective effect on human skin cells and prevent oxidative stress” (Eur J Med Chem, 2018)
Active and inactive are the calls of the source. The rule behind the calls is not given here.

Experiments:
HaCaT [1] = test: Cytotoxicity in human HaCaT cells assessed as reduction in cell viability at 50 uM after 24 hrs by resazurin dye-based fluorescence assay relative to control
[2] = Cytotoxicity in human NHDF cells assessed as cell viability at 15.6 uM after 24 hrs by neutral red uptake assay relative to control; assay type: cell-based; details: read-out: Activity
[3] = Cytotoxicity in human NHDF cells assessed as cell viability at 62.5 uM after 24 hrs by neutral red uptake assay relative to control; assay type: cell-based; details: read-out: Activity
[4] = Phototoxicity in human NHDF cells assessed as cell viability at 3.9 uM preincubated for 60 mins followed by 5 J/cm2 UVA irradiation and measured after 24 hrs by neutral red uptake assay relative to control; assay type: cell-based; details: read-out: Activity
[5] = Cytotoxicity in human HaCaT cells assessed as cell viability at 31.3 uM after 24 hrs by neutral red uptake assay relative to control; assay type: cell-based; details: read-out: Activity
[6] = Cytotoxicity in human HaCaT cells assessed as cell viability at 125 uM after 24 hrs by neutral red uptake assay relative to control; assay type: cell-based; details: read-out: Activity
[7] = Phototoxicity in human HaCaT cells assessed as cell viability at 3.9 uM preincubated for 60 mins followed by 7.5 J/cm2 UVA irradiation and measured after 24 hrs by neutral red uptake assay relative to control; assay type: cell-based; details: read-out: Activity
[8] = Phototoxicity in human HaCaT cells assessed as cell viability at 31.3 uM preincubated for 60 mins followed by 7.5 J/cm2 UVA irradiation and measured after 24 hrs by neutral red uptake assay relative to control; assay type: cell-based; details: read-out: Activity
HaCaT [9] = test: Cytoprotection against phototoxicity in human HaCaT cells assessed as increase in cell viability at 3.9 to 31.3 uM preincubated for 60 mins followed by 10 J/cm2 UVA irradiation and measured after 24 hrs by neutral red uptake assay; assay type: functional, cell-based
NHDF [10] = test: Cytoprotection against phototoxicity in human NHDF cells assessed as increase in cell viability at 3.9 uM preincubated for 60 mins followed by 7.5 J/cm2 UVA irradiation and measured after 24 hrs by neutral red uptake assay; assay type: functional, cell-based
HaCaT [11] = test: Cytoprotection against phototoxicity in human HaCaT cells assessed as increase in cell viability at 3.9 uM preincubated for 60 mins followed by 10 J/cm2 UVA irradiation and measured after 24 hrs by neutral red uptake assay; assay type: functional, cell-based
NHDF [12] = test: Potency index, ratio of compound effect to rosmarinic acid effect for cytoprotection against phototoxicity in human NHDF cells assessed as increase in cell viability at 3.9 uM preincubated for 60 mins followed by 7.5 J/cm2 UVA irradiation and measured after 24 hrs by neutral red uptake assay; assay type: functional

## c1csc(CNc2ncnc3c2ncn3C2CCCO2)c1 (configuration not stated)
HaCaT [1]
  Activity: < 10%
[2]
  viability at 24 h, 15.6 µM: 100%
[3]
  viability at 24 h, 62.5 µM: 108%
[4]
  viability at 24 h, 3.9 µM: 98%
[5]
  viability at 24 h, 31.3 µM: 102%
[6]
  viability at 24 h, 125 µM: 103%
[7]
  viability at 24 h, 3.9 µM: 123%
[8]
  viability at 24 h, 31.3 µM: 128%
HaCaT [9]
  Activity: Active
NHDF [10]
  Activity: Active
HaCaT [11]
  Activity: Active
NHDF [12]
  Ratio: >6
